# Laboratory results reported in patent US20230036041A1, “SORTILIN BINDING CONJUGATE COMPOUNDS, COMPOSITIONS AND USES THEREOF FOR TREATING CANCER” (THERATECHNOLOGIES INC., priority 2019, published 2023).
# “Also recorded” adds a separate entry of the source. Non-standard residues stand in square brackets, D forms with d. Residues, ends and D or L forms follow the SMILES beside them. *: point of attachment. X1 = CC(=O)O[C@@]12CO[C@@H]1C[C@H](O)[C@@]1(C)C(=O)[C@H](O)C3=C(C)[C@@H](OC(=O)[C@H](OC(=O)CCC(=O)*)[C@@H](NC(=O)OC(C)(C)C)c4ccccc4)C[C@@](O)([C@@H](OC(=O)c4ccccc4)[C@H]21)C3(C)C; Nle = CCCC[C@H](N)C(=O)O
# Key:
# [1] = assessment of neutropenia in treated mice; format: in vivo; conditions: athymic mice; for neutrophil counts: docetaxel 15 mg/kg/week or TH1902 at equivalent dose, up to 6 treatments, FIG. 11
# Description: 15 young adult, female, homozygous athymic mice (Crl:CD1-Foxn1^nu, 4-6 weeks of age) received 6 consecutive treatments of docetaxel or TH1902 (at equivalent dose of docetaxel (15 mg/kg/week)). […] This level continued to decrease as the administration of docetaxel continued.
# [2] = mouse plasma levels after IV bolus injection; format: in vivo, mice
# Description: In addition, TH1902 and docetaxel mouse plasma levels were assessed in TH1902-treated mice.
# [3] = system: MDA-MB-231/Luc (triple-negative breast cancer) xenografts; test: tumor growth inhibition, MDA-MB-231/Luc xenografts in nude mice, TH1902 formulations (Examples 3A, 3B); format: in vivo
# Description: TH1902 and docetaxel (supplied by Wonda Science Inc.) were used. […] Both treatments were administered intravenously, on a per week basis over 6 weeks.
# 8 different formulations comprising TH1902 were tested.
# These are derived from a triple-negative breast cancer (TNBC) and they stably express firefly luciferase. […] Cell counts and cell viability were assessed with a BioRad TC20™ automated cell counter.
# 60 young adult, female, homozygous nude mice (Crl:CD1-Foxn1^nu), obtained from Charles River Canada Inc. (St-Constant, Quebec) were used in this study. Healthy mice were selected based on normal veterinary examination.
# Tumor growth was monitored, and mice were randomly assigned to groups the vehicle group, docetaxel group or one of the 8 TH1902 formulations group (6 mice per group) for further treatment when tumor volumes reached 40-140 mm^3 or after 2-3 days of significant increase. Experimental procedures
# Mice were first anesthetized with isoflurane and oxygen. Two-dimensional measurements were taken with electronic calipers during the study and tumor volume was calculated using the following formula: tumor volume (mm^3)=0.52*a*b^2, where 0.52 is a constant to calculate the volume of an ellipsoid (π/6), where “a” is the longest diameter and “b” is the shortest diameter[3]. […]
# All mice were observed daily for changes in appearance and behavior, and events recorded when appropriate. […]
# [4] = system: HT29 colorectal xenograft tumors; test: colorectal cancer xenograft model (HT-29); format: in vivo, mice; conditions: low and high doses, −20% endpoint limit
# Description: (§1) Briefly, stock solution of formulated TH1902 was prepared as sterile aliquots of 10 mg/mL frozen liquid solutions (see below). On the day of animal dosing, frozen aliquots were thawed 30 minutes at room temperature then diluted with sterile 5% dextrose injection, USP (D5W) to the desired concentration for injection (i.e. typically 5.4 or 1.35 mg/mL).
# (§2) TH1902 frozen stock solution were prepared as follow: • 1. Make the TH1902 diluent solution (Diluent) the day before the solubilization. Diluent: 10% Tween™ 80 in D5W USP (w/v) with 0.04% of formic acid (v/v), ˜pH 2.9. Leave solution at room temperature until TH1902 solubilization (next day). • 2. Weigh 60 mg of TH1902 API into a 14 ml glass vial with screw caps. Adjust TH1902 weights to reflect TH1902 purity according to the certificate of analysis. • 3. Add 90% of diluent solution needed to prepare the TH1902 10 mg/ml stock solution. • 4. Swirl the content of the bottle to form opaque mixture and place a stir bar. • 5. Place bottle in the heating apparatus (glass water bath and mount for holding vial with thermometer and stir bar on a digital heating plate). Begin mixing the content of the bottle. • 6. […] Transfer the formulation to a graduated glass cylinder and bring to final calculated volume with diluent solution. • 9. […] Perform UPLC analysis against a TH1902 standard curve for quantification and purity assessment. • 11. […]
# [5] = system: PANC-1 subcutaneous tumor xenografts; test: pancreatic cancer xenograft model (PANC-1); format: in vivo, mice; conditions: vs vehicle
# Description: as §1, §2
# [6] = in vitro stability in mouse plasma; format: in vitro ADME; conditions: 37° C.
# Description: Additional testing was conducted to study the stability of formulated TH1902 in mouse plasma. TH1902 was either solubilized in […] or formulated with solubilizing agents (Formulation: DMSO/Solutol™ HS15/Tween™-80/EtOH/Sol. Ac. Ac./D5W/water in the following V/V proportion 5/6/2.5/0.75/0.005/69/16.75). TH1902 was incubated in mouse plasma at 37° C. for the indicated times. Plasma proteins were precipitated by the addition of 4 volumes of ACN (87%) with formic acid (0.125%) followed by centrifugation (10,000 rpm×5 min). Supernatants were injected in UPLC/MS. Peak area corresponding to TH1902 was calculated and compared to time 0.
Structure (SMILES),neutrophil counts [1],docetaxel concentration that can be measured in plasma ([2]; administered as a free drug),"tumor volumes / tumor growth up to Day 24 ([3]; 8.75 mg/kg/week TH1902, docetaxel at ¼ MTD, vs vehicle, FIG. 16)","ΔT/ΔC (%) (at endpoint, Day-24) ([3]; 8.75 mg/kg/week of TH1902 (docetaxel 3.75 mg/kg))",body weights [4],"tumor growth / tumor size, low dose ([5]; docetaxel 3.75 mg/kg, TH1902 8.75 mg/kg, day 21 and extended)","tumor growth / tumor size, high dose ([5]; docetaxel 15 mg/kg (MTD), TH1902 35 mg/kg, day 21)",weight loss ([1]; TH1902 at equivalent dose of docetaxel 15 mg/kg/week),"concentration of docetaxel released from TH1902 in plasma ([2]; mouse plasma, IV bolus injection 50 mg/kg TH1902)","plasma concentration of TH1902 ([2]; mouse plasma, IV bolus injection 50 mg/kg TH1902, FIG. 12)",half-life ([6]; TH1902 formulated with solubilizing agents (DMSO/Solutol HS15/Tween-80/EtOH/Sol. Ac. Ac./D5W/water 5/6/2.5/0.75/0.005/69/16.75)) [h],half-life ([6]; TH1902 solubilized in DMSO) [h]
CC(=O)O[C@@]12CO[C@@H]1C[C@H](O)[C@@]1(C)C(=O)[C@H](O)C3=C(C)[C@@H](OC(=O)[C@H](O)[C@@H](NC(=O)OC(C)(C)C)c4ccccc4)C[C@@](O)([C@@H](OC(=O)c4ccccc4)[C@H]21)C3(C)C [docetaxel],sharp drop in neutrophil levels,15-20%,grow slightly faster than those in the control animals,143,within the acceptable range,very similar in size to those treated with vehicle; also recorded: indistinguishable,Decreased tumor growth; also recorded: significant decreases in tumor size,–,–,–,–,–
"CCCC[C@H](NC(=O)[C@H](CC(N)=O)NC(=O)[C@H](CCCNC(=N)N)NC(=O)[C@@H](NC(=O)CNC(=O)[C@H](C)NC(=O)[C@H](CCCCNC(=O)CCC(=O)O[C@@H](C(=O)O[C@H]1C[C@@]2(O)[C@@H](OC(=O)c3ccccc3)[C@@H]3[C@]4(OC(C)=O)CO[C@@H]4C[C@H](O)[C@@]3(C)C(=O)[C@H](O)C(=C1C)C2(C)C)[C@@H](NC(=O)OC(C)(C)C)c1ccccc1)NC(=O)[C@H](C)NC(=O)[C@H](CCCNC(=N)N)NC(=O)[C@@H](NC(=O)CNC(C)=O)C(C)C)C(C)C)C(=O)N[C@@H](Cc1ccccc1)C(=O)N[C@@H](CCCCNC(=O)CCC(=O)O[C@@H](C(=O)O[C@H]1C[C@@]2(O)[C@@H](OC(=O)c3ccccc3)[C@@H]3[C@]4(OC(C)=O)CO[C@@H]4C[C@H](O)[C@@]3(C)C(=O)[C@H](O)C(=C1C)C2(C)C)[C@@H](NC(=O)OC(C)(C)C)c1ccccc1)C(=O)N[C@@H](CO)C(=O)N[C@@H](CCC(=O)O)C(=O)N[C@@H](CO)C(=O)N[C@@H](Cc1ccc(O)cc1)C(=O)O [TH1902, Acetyl-GVRAK(docetaxel)AGVRN(Nle)FK(docetaxel)SESY] (Ac-GVRAK(X1)AGVRN[Nle]FK(X1)SESY-OH)",no apparent change in the neutrophil counts,–,–,–,within the acceptable range,–,–,no weight loss was observed,very low concentration,high plasma concentration,30,5
